For the test, the target named is T1, His-tagged full-length RSK2 (RPS6KA3) (Homo sapiens, UniProt P51812).
T1 construct: His-tagged full-length RSK2 (RPS6KA3, Invitrogen PV3323); His; purchased Invitrogen PV3323
Nature of the test: RSK2 Omnia Assay for compound IC50 determination. Format: biochemical. The following applies: ATP 15 μM, n=2, read-out: Mean RSK2 Biochem IC50. Put shortly: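 Continuous fluorescence assay (ex 360/em 485 nm) of SOX-peptide (Omnia ST Peptide 6, 5 μM) phosphorylation with ATP 15 μM (Km 16.3 μM). Enzyme was […], in pH 7.5 HEPES/MgCl2 buffer with 1% DMSO. IC50 came from 11-point threefold dilutions ([…]) by four-parameter fit of initial slopes, in duplicate; Ki by Cheng-Prusoff assuming competitive inhibition.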

T1 sequence (P51812 whole entry): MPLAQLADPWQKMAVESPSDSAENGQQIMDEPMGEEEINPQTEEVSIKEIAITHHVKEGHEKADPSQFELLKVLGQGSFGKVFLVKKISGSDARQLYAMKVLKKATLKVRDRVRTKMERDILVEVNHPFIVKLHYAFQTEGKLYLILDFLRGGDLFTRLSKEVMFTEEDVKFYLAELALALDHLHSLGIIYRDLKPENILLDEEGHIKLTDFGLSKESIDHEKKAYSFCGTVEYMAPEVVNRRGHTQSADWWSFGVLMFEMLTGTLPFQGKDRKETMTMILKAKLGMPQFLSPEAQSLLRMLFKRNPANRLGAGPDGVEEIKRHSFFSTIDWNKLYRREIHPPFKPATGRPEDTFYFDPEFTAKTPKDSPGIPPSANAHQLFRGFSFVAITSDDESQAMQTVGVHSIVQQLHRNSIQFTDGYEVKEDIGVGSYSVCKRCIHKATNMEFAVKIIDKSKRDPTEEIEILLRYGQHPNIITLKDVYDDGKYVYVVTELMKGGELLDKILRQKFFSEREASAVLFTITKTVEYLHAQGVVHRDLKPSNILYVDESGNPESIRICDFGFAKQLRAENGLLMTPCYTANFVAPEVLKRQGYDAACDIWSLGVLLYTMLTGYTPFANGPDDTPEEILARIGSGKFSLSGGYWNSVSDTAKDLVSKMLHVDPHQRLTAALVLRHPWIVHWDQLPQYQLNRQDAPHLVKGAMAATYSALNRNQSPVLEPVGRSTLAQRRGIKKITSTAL

A word on the IC50: it is the concentration needed to halve the response being measured. On to `C[C@@H]1C(=O)N(c2ccc(N(C)C)cc2)c2cnc(Nc3ccc4[nH]ncc4c3)nc2N1C1CCCCC1` [Example 41, (7R)-8-cyclohexyl-5-[4-(dimethylamino)phenyl]-2-(1H-indazol-5-ylamino)-7-methyl-7,8-dihydropteridin-6(5H)-one], for which the IC50 was no more than 100 nM.

Consider `C[C@@H]1C(=O)N(c2cccnc2)c2cnc(Nc3cc(F)c4[nH]ncc4c3)nc2N1[C@H]1CC[C@@H](C(F)(F)F)CC1` [compound 255, (7R)-2-[(7-fluoro-1H-indazol-5-yl)amino]-7-methyl-5-(pyridin-3-yl)-8-[cis-4-(trifluoromethyl)cyclohexyl]-7,8-dihydropteridin-6(5H)-one], for which the IC50 was no more than 100 nM.

Consider `[2H]C1([2H])C(N2c3nc(Nc4cc(F)c5[nH]ncc5c4)ncc3N(c3cccc(C#N)c3)C(=O)[C@H]2C)C([2H])([2H])C([2H])([2H])C([2H])([2H])C1([2H])[2H]` [compound 302, 3-[(7R)-8-[(2,2,3,3,4,4,5,5,6,6-2H10)cyclohexyl]-2-[(7-fluoro-1H-indazol-5-yl)amino]-7-methyl-6-oxo-7,8-dihydropteridin-5(6H)-yl]benzonitrile], for which the half-inhibitory concentration (IC50) is no more than 100 nM.

With `C[C@@H]1C(=O)N(c2cccc(F)c2)c2cnc(Nc3cc(F)c4[nH]ncc4c3)nc2N1C1CCOCC1` [compound 189, (7R)-2-[(7-fluoro-1H-indazol-5-yl)amino]-5-(3-fluorophenyl)-7-methyl-8-(tetrahydro-2H-pyran-4-yl)-7,8-dihydropteridin-6(5H)-one], the IC50 is no more than 100 nM.

For `C[C@@H]1C(=O)N(c2cccc(C#N)c2)c2cnc(Nc3cc(F)c4[nH]ncc4c3)nc2N1c1ccc(F)cc1` [compound 180], the IC50 is no more than 100 nM.

With `C[C@@H]1C(=O)N(c2cccc(C#N)c2)c2cnc(Nc3cc(F)c4[nH]nc(F)c4c3)nc2N1C1CCCCC1` [compound 131, 3-[(7R)-8-cyclohexyl-2-[(3,7-difluoro-1H-indazol-5-yl)amino]-7-methyl-6-oxo-7,8-dihydropteridin-5(6H)-yl]benzonitrile], the IC50 was no more than 100 nM.

Take `Cc1cc(Nc2ncc3c(n2)N(C2CCCCC2)[C@H](C)C(=O)N3c2cccc(C#N)c2)cc2cn[nH]c12` [Example 59, 3-[(7R)-8-cyclohexyl-7-methyl-2-[(7-methyl-1H-indazol-5-yl)amino]-6-oxo-7,8-dihydropteridin-5(6H)-yl]benzonitrile]: the IC50 fell in the range of 100 to 1000 nM.

Regarding `C[C@@H]1C(=O)N(c2cccc(N(C)C)c2)c2cnc(Nc3ccc4[nH]ncc4c3)nc2N1C1CCCCC1` [Example 44, (7R)-8-cyclohexyl-5-[3-(dimethylamino)phenyl]-2-(1H-indazol-5-ylamino)-7-methyl-7,8-dihydropteridin-6(5H)-one], the IC50 was no more than 100 nM.

In the case of `COc1ccc(N2C(=O)[C@@H](C)N(C3CCOCC3)c3nc(Nc4cc(F)c5[nH]ncc5c4)ncc32)cc1OC` [compound 188, (7R)-5-(3,4-dimethoxyphenyl)-2-[(7-fluoro-1H-indazol-5-yl)amino]-7-methyl-8-(tetrahydro-2H-pyran-4-yl)-7,8-dihydropteridin-6(5H)-one], the half-maximal inhibitory concentration (IC50) was no more than 100 nM.

As for `C[C@@H]1C(=O)N(c2cnc3ccccc3c2)c2cnc(Nc3ccc4[nH]ncc4c3)nc2N1C1CCCCC1` [Example 50, (7R)-8-cyclohexyl-2-(1H-indazol-5-ylamino)-7-methyl-5-(quinolin-3-yl)-7,8-dihydropteridin-6(5H)-one], the IC50 was no more than 100 nM.

`C[C@@H]1C(=O)N(c2cccc(C#N)c2)c2cnc(Nc3cc(F)c4[nH]c(=O)oc4c3)nc2N1C1CCC(F)(F)CC1` [compound 277, 3-[(7R)-8-(4,4-difluorocyclohexyl)-2-[(4-fluoro-2-oxo-2,3-dihydro-1,3-benzoxazol-6-yl)amino]-7-methyl-6-oxo-7,8-dihydropteridin-5(6H)-yl]benzonitrile]: the half-inhibitory concentration (IC50) is no more than 100 nM.

Turning to `Cc1ccc(N2C(=O)[C@@H](C)N(C3CCCCC3)c3nc(Nc4ccc5[nH]ncc5c4)ncc32)cn1` [compound 113, (7R)-8-cyclohexyl-2-(1H-indazol-5-ylamino)-7-methyl-5-(6-methylpyridin-3-yl)-7,8-dihydropteridin-6(5H)-one], the IC50 is no more than 100 nM.

Consider `C[C@@H]1C(=O)N(c2cccc(C#N)c2)c2cnc(Nc3ccc4[nH]nc(Cl)c4c3)nc2N1C1CCCCC1` [compound 108, 3-[(7R)-2-[(3-chloro-1H-indazol-5-yl)amino]-8-cyclohexyl-7-methyl-6-oxo-7,8-dihydropteridin-5(6H)-yl]benzonitrile], for which the IC50 is no more than 100 nM.

For `C[C@@H]1C(=O)N(c2cccnc2)c2cnc(Nc3cc(F)c4[nH]ncc4c3)nc2N1C1CCC(F)(F)CC1` [compound 264, (7R)-8-(4,4-difluorocyclohexyl)-2-[(7-fluoro-1H-indazol-5-yl)amino]-7-methyl-5-(pyridin-3-yl)-7,8-dihydropteridin-6(5H)-one], the IC50 is no more than 100 nM.

Regarding `C[C@@H]1C(=O)N(c2cccc(C#N)c2)c2cnc(Nc3cc(F)c4c(c3)CC(=O)N4)nc2N1C1CCCCC1` [compound 145, 3-[(7R)-8-cyclohexyl-2-[(7-fluoro-2-oxo-2,3-dihydro-1H-indol-5-yl)amino]-7-methyl-6-oxo-7,8-dihydropteridin-5(6H)-yl]benzonitrile], the concentration for half-maximal inhibition (IC50) was no more than 100 nM.

On to `COc1ccc(N2C(=O)[C@@H](C)N(C3CCOCC3)c3nc(Nc4cnc5[nH]ncc5c4)ncc32)cc1C#N` [compound 200, 2-methoxy-5-[(7R)-7-methyl-6-oxo-2-(1H-pyrazolo[3,4-b]pyridin-5-ylamino)-8-(tetrahydro-2H-pyran-4-yl)-7,8-dihydropteridin-5(6H)-yl]benzonitrile], for which the IC50 was no more than 100 nM.

Turning to `COc1ccc(N2C(=O)[C@@H](C)N([C@H]3CC[C@H](OC)CC3)c3nc(Nc4cnc5[nH]ncc5c4)ncc32)cc1C#N` [compound 234, 2-methoxy-5-[(7R)-8-(trans-4-methoxycyclohexyl)-7-methyl-6-oxo-2-(1H-pyrazolo[3,4-b]pyridin-5-ylamino)-7,8-dihydropteridin-5(6H)-yl]benzonitrile], the IC50 is no more than 100 nM.

As for `CC(C)Oc1ccc(N2C(=O)[C@@H](C)N(C3CCC(F)(F)CC3)c3nc(Nc4cc(F)c5[nH]c(=O)oc5c4)ncc32)cc1C#N` [compound 278, 5-[(7R)-8-(4,4-difluorocyclohexyl)-2-[(4-fluoro-2-oxo-2,3-dihydro-1,3-benzoxazol-6-yl)amino]-7-methyl-6-oxo-7,8-dihydropteridin-5(6H)-yl]-2-(propan-2-yloxy)benzonitrile], the IC50 is no more than 100 nM.

For the compound `C[C@@H]1C(=O)N(c2ccc(N(C)C)nc2)c2cnc(Nc3cc(F)c4[nH]ncc4c3)nc2N1C1CCCCC1` [compound 143, (7R)-8-cyclohexyl-5-[6-(dimethylamino)pyridin-3-yl]-2-[(7-fluoro-1H-indazol-5-yl)amino]-7-methyl-7,8-dihydropteridin-6(5H)-one], the 50% inhibitory concentration (IC50) is no more than 100 nM.

As for `C[C@@H]1C(=O)N(c2cccc(C#N)c2)c2cnc(Nc3ccc4c(c3)CC(=O)N4)nc2N1C1CCCCC1` [Example 51, 3-[(7R)-8-cyclohexyl-7-methyl-6-oxo-2-[(2-oxo-2,3-dihydro-1H-indol-5-yl)amino]-7,8-dihydropteridin-5(6H)-yl]benzonitrile], the IC50 is no more than 100 nM.

`C[C@@H]1C(=O)N(c2cccc(F)c2)c2cnc(Nc3cc(F)c4[nH]ncc4c3)nc2N1C1CCC(F)(F)CC1` [compound 263, (7R)-8-(4,4-difluorocyclohexyl)-2-[(7-fluoro-1H-indazol-5-yl)amino]-5-(3-fluorophenyl)-7-methyl-7,8-dihydropteridin-6(5H)-one]: the IC50 was no more than 100 nM.

As to `COC(=O)c1ccc(Nc2ncc3c(n2)N(CCC(C)C)C(C)C(=O)N3c2ccccc2)cc1` (stereo not drawn) [Example 9, methyl 4-{[7-methyl-8-(3-methylbutyl)-6-oxo-5-phenyl-5,6,7,8-tetrahydropteridin-2-yl]amino}benzoate], the IC50 was greater than 1000 nM.

`C[C@@H]1C(=O)N(c2ccc[n+]([O-])c2)c2cnc(Nc3cc(F)c4[nH]ncc4c3)nc2N1C1CCCCC1` [Example 303, (7R)-8-cyclohexyl-2-[(7-fluoro-1H-indazol-5-yl)amino]-7-methyl-5-(1-oxidopyridin-3-yl)-7,8-dihydropteridin-6(5H)-one]: the IC50 is no more than 100 nM.

As for `N#Cc1cccc(N2C(=O)[C@@H](CF)N(C3CCCC3)c3nc(Nc4cc(F)c5[nH]ncc5c4)ncc32)c1` [Example 221, 3-[(7S)-8-cyclopentyl-2-[(7-fluoro-1H-indazol-5-yl)amino]-7-(fluoromethyl)-6-oxo-7,8-dihydropteridin-5(6H)-yl]benzonitrile], the IC50 was no more than 100 nM.

On to `COc1ccc(N2C(=O)[C@@H](C)N(C3CCCCC3)c3nc(Nc4cc(F)c5[nH]ncc5c4)ncc32)cn1` [compound 138, (7R)-8-cyclohexyl-2-[(7-fluoro-1H-indazol-5-yl)amino]-5-(6-methoxypyridin-3-yl)-7-methyl-7,8-dihydropteridin-6(5H)-one], for which the IC50 was no more than 100 nM.

As to `CC[C@@H]1C(=O)N(c2ccc(N(C)C)nc2)c2cnc(Nc3cc(F)c4[nH]ncc4c3)nc2N1C1CCCCC1` [compound 293, (7R)-8-cyclohexyl-5-[6-(dimethylamino)pyridin-3-yl]-7-ethyl-2-[(7-fluoro-1H-indazol-5-yl)amino]-7,8-dihydropteridin-6(5H)-one], the IC50 is no more than 100 nM.

Take `C[C@@H]1C(=O)N(c2ccc(N3CCCC3)c(C#N)c2)c2cnc(Nc3cc(F)c4[nH]ncc4c3)nc2N1C1CCC(C)(C)CC1` [Example 212, 5-[(7R)-8-(4,4-dimethylcyclohexyl)-2-[(7-fluoro-1H-indazol-5-yl)amino]-7-methyl-6-oxo-7,8-dihydropteridin-5(6H)-yl]-2-(pyrrolidin-1-yl)benzonitrile]: the concentration for half-maximal inhibition (IC50) is no more than 100 nM.

Source of the values: US9351974B2, “Substituted pteridinones for the treatment of cancer” (OSI Pharmaceuticals, LLC, priority 2011, dated 2016).
